Measurements: ChEMBL document CHEMBL4602643, “Anti-inflammatory activities of isopimara-8(14),-15-diene diterpenoids and mode of action of kaempulchraols P and Q from Kaempferia pulchra rhizomes” (Bioorg Med Chem Lett, 2020)
Activity calls are given as the source filed them. The rule behind the calls is not given here.

Key:
[1] = test system: RAW264.7; experiment: Antiinflammatory activity in mouse RAW264.7 cells assessed as inhibition of LPS-induced COX2 expression at 25 uM incubated for 24 hrs by Western blot analysis; type: functional, cell-based
[2] = test system: RAW264.7; experiment: Anti-inflammatory activity in mouse RAW264.7 cells assessed as inhibition of LPS-induced NO production at 5 uM relative to control; type: functional
[3] = test system: RAW264.7; experiment: Anti-inflammatory activity in mouse RAW264.7 cells assessed as inhibition of LPS-induced NO production; type: functional, cell-based
[4] = test system: RAW264.7; experiment: Inhibition of LPS-induced IL-6 production in mouse RAW264.7 cells at 25 uM by ELISA; type: functional, cell-based
[5] = test system: RAW264.7; experiment: Anti-inflammatory activity in mouse RAW264.7 cells assessed as inhibition of LPS-induced NO production at 100 uM relative to control; type: functional
[6] = test system: RAW264.7; experiment: Anti-inflammatory activity in mouse RAW264.7 cells assessed as inhibition of LPS-induced NO production at 10 uM relative to control; type: functional
[7] = test system: RAW264.7; experiment: Cytotoxicity against mouse RAW264.7 cells expressing luciferase reporter gene assessed as cell survival at 5 to 25 uM; type: cell-based; settings: raw264.7, 25 µM
[8] = Cytotoxicity against mouse RAW264.7 cells assessed as cell survival at 50 uM; type: cell-based; settings: read-out: Activity
[9] = Cytotoxicity against mouse RAW264.7 cells assessed as cell survival at 10 uM; type: cell-based; settings: read-out: Activity
[10] = test system: RAW264.7; experiment: Inhibition of NF-kappaB activation in mouse RAW264.7 cells expressing luciferase gene at 5 to 25 uM by luciferase reporter gene assay; type: cell-based
[11] = test system: RAW264.7; experiment: Inhibition of LPS-induced NF-kappaB activation in mouse RAW264.7 cells expressing luciferase gene at 5 to 25 uM by luciferase reporter gene assay; type: cell-based
[12] = Cytotoxicity against mouse RAW264.7 cells assessed as cell survival at 5 uM; type: cell-based; settings: read-out: Activity
[13] = test system: RAW264.7; experiment: Anti-inflammatory activity in mouse RAW264.7 cells assessed as inhibition of LPS-induced NO production at 50 uM relative to control; type: functional
[14] = Cytotoxicity against mouse RAW264.7 cells assessed as cell survival at 100 uM; type: cell-based; settings: read-out: Activity

C=C[C@]1(C)C=C2C[C@@H](O)[C@H]3C(C)(C)CCC[C@]3(C)[C@H]2CC1
inhibition [1]: Active
inhibition at 5 µM [2]: 9.97%
IC50 [3]: 39.9 µM
inhibition [4]: Active
inhibition at 100 µM [5]: 81.7%
inhibition at 10 µM [6]: 3.82%
Activity [7]: Non-Toxic
viability at 50 µM [8]: 109%
viability at 10 µM [9]: 149%
inhibition [10]: Active
inhibition [11]: Active
viability at 5 µM [12]: 98.7%
inhibition at 50 µM [13]: 65.6%
viability at 100 µM [14]: 66.8%
